How the values were obtained:
[1] = target: T1, dopamine D2 (Homo sapiens, UniProt P14416); details: read-out: dopamine D2 Ki (literature); previously assayed analogue; cited from earlier work
Target sequence in this assay (P14416 whole entry): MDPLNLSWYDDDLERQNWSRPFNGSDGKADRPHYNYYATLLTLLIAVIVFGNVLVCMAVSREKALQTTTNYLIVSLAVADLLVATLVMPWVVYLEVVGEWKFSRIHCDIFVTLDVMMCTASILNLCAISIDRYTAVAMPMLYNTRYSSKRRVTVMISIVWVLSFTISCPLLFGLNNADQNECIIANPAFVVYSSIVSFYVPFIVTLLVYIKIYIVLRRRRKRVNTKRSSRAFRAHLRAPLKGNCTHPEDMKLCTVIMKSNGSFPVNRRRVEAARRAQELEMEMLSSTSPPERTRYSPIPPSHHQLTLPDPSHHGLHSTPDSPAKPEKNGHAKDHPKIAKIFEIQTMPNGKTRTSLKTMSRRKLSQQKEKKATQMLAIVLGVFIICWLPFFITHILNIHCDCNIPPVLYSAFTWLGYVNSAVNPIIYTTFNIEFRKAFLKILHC

[2] = target: T2, dopamine D4 (Homo sapiens, UniProt P21917); details: previously reported analogue; read-out: dopamine D4 Ki (literature); cited from earlier work
T2 sequence (P21917 1-419): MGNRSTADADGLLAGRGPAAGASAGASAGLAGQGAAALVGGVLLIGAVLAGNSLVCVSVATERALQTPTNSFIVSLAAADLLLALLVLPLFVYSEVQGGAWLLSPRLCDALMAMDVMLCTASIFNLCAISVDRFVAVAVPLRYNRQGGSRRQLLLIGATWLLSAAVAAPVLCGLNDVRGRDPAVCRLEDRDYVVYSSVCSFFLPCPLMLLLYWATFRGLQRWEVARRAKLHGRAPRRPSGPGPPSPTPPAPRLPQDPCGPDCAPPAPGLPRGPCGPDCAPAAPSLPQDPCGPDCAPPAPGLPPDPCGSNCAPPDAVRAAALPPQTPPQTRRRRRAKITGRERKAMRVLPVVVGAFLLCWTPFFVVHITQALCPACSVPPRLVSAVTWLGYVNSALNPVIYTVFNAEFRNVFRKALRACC

[3] = target: T2, dopamine D4; assay: Primary radioligand binding assay (NIMH PDSP); details: primary radiobinding assay, N-methylspiperone; on D4 (% inh): test concentration or dose not given here
[4] = target: T1, dopamine D2; assay: Primary radioligand binding assay (NIMH PDSP); details: primary radiobinding assay, [3H]N-methylspiperone; on D4 (% inh): test concentration or dose not given here
Target sequence in this assay (P14416 whole entry, species assumed): as the sequence (P14416 whole entry) above

[5] = target: dopamine D5 (Homo sapiens, UniProt P21918); assay: Primary radioligand binding assay (NIMH PDSP); details: primary radiobinding assay, [3H]SCH233930; further: test concentration or dose not given here
[6] = target: T3, Alpha1D (Homo sapiens, UniProt P25100); assay: Primary radioligand binding assay (NIMH PDSP); details: primary radiobinding assay, [3H]Prazosin
T3 sequence (P25100 1-572): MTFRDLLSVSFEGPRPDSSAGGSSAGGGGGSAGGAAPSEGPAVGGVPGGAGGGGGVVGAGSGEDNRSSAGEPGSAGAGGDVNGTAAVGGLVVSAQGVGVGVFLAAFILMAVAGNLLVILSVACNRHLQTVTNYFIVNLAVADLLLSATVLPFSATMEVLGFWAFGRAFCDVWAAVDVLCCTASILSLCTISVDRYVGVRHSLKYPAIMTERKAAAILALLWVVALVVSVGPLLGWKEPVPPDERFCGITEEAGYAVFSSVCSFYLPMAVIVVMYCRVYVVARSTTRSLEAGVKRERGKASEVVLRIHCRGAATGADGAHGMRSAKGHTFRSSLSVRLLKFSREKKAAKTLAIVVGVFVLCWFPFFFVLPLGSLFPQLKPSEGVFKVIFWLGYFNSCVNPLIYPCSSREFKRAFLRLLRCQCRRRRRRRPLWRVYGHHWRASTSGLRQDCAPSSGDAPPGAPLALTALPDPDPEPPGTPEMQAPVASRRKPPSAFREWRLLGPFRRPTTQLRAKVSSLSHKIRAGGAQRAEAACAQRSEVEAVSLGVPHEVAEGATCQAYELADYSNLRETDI

[7] = target: 5-HT7 (Homo sapiens, UniProt P34969); assay: Secondary radioligand binding assay (Ki)
Procedure: (§1) Assay Buffer: Standard Binding Buffer (50 mM Tris-HCl, 10 mM MgCl2, 1 mM EDTA, pH 7.4)
(§2) Membrane Fraction Source: Transiently or stably transfected cell lines (e.g., HEK293, COS, CHO, NIH3T3)
(§3) Radioligand is diluted to five times the assay concentration (see Table 18) in Standard Binding Buffer. Typically, the assay concentration of radioligand is a value between one half the KD and the KD of a particular radioligand at its target. 50 μl aliquots of radioligand are dispensed into the wells of a 96-well plate containing 100 μl of Standard Binding Buffer. Then, duplicate 50 μl aliquots of the test and reference compound dilutions are added.
(§4) The 250 μl reactions are incubated at room temperature and shielded from light (to prevent photolysis of light-sensitive ligands) for 1.5 hours, then harvested by rapid filtration onto Whatman GF/B glass fiber filters pre-soaked with 0.3% polyethyleneimine using a 96-well Brandel harverster. Four rapid 500 μl washes are performed with chilled Standard Binding Buffer to reduce non-specific binding. Filters are placed in 6 ml scintillation tubes and allowed to dry overnight. The next day, 4 ml of EcoScint scintillation cocktail (National Diagnostics) are added to each tube. The tubes are capped, labeled, and counted by liquid scintillation counting. […] The filter mats are dried, then scintillant is melted onto the filters and the radioactivity retained on the filters is counted in a Microbeta scintillation counter.
(§5) Raw data (dpm) representing total radioligand binding (i.e. specific+non-specific binding) are plotted as a function of the logarithm of the molar concentration of the competitor (i.e. test or reference compound).

[8] = target: T4, 5HT1a (Homo sapiens, UniProt P08908); assay: Secondary radioligand binding assay (Ki)
T4 sequence (P08908 1-422): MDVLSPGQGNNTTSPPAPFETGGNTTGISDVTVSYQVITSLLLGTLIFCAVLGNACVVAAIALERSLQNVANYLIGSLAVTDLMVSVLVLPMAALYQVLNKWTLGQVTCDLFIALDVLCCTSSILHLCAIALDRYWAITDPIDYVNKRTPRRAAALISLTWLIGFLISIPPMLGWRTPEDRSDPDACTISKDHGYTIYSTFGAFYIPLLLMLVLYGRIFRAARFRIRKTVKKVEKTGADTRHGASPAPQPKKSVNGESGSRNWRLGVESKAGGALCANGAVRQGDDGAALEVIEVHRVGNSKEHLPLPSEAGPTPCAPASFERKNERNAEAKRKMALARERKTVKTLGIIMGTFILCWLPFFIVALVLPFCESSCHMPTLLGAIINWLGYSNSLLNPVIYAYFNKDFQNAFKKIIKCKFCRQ
Procedure: as §1, §2, §3, §4, §5

[9] = target: dopamine D3 (Homo sapiens, UniProt P35462); assay: Primary radioligand binding assay (NIMH PDSP); details: primary radiobinding assay, N-methylspiperone; further: test concentration or dose not given here
[10] = target: 5-HT2B (Homo sapiens, UniProt P41595); assay: Secondary radioligand binding assay (Ki)
Procedure: as §1, §2, §3, §4, §5

[11] = target: T5, Alpha1A (Homo sapiens, UniProt P35348); assay: Primary radioligand binding assay (NIMH PDSP); details: primary radiobinding assay, [3H]Prazosin; further: test concentration or dose not given here
T5 sequence (P35348 1-466): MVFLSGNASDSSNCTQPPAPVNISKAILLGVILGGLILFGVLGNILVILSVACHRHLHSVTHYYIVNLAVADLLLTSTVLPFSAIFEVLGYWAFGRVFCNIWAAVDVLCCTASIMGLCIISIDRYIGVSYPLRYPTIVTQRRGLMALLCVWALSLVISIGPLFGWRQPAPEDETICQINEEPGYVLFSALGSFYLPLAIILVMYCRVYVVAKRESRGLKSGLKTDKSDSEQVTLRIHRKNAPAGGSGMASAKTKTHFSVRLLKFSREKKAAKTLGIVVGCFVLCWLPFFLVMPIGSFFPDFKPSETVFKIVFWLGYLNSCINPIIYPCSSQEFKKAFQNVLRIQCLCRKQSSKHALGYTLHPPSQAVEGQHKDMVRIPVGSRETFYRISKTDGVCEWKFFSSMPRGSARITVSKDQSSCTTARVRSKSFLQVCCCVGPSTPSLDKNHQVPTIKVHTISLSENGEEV

[12] = target: dopamine D1 (Homo sapiens, UniProt P21728); assay: Primary radioligand binding assay (NIMH PDSP); details: primary radiobinding assay, [3H]SCH233930; further: test concentration or dose not given here
[13] = target: T6, Alpha1B (Homo sapiens, UniProt P35368); assay: Primary radioligand binding assay (NIMH PDSP); details: primary radiobinding assay, [3H]Prazosin; further: test concentration or dose not given here
T6 sequence (P35368 1-520): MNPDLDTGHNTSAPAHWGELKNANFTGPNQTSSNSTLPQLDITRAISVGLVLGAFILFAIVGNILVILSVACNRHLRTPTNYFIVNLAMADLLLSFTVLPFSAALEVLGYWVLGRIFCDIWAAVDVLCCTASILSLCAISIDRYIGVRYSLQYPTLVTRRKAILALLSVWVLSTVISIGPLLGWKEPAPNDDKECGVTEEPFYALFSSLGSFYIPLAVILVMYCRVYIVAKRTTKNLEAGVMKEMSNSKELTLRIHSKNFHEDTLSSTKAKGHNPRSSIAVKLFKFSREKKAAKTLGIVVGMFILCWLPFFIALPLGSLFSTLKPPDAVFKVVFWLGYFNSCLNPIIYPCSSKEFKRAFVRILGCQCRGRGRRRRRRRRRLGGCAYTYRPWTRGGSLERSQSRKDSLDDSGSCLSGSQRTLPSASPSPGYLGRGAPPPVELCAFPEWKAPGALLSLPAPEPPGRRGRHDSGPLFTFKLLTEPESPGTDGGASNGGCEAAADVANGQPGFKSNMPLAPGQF

[14] = target: T7, α1A (Alpha1A) (Homo sapiens, UniProt P35348); assay: Secondary radioligand binding assay (Ki)
T7 sequence (P35348 1-466): T5 sequence (P35348 1-466)
Procedure: as §3, §4, §5
Adrenergic Receptors: α1A, α1B, α2A, α2B, α2C, β1, β2, β3
Membrane Fraction Source: Transiently or stably transfected cell lines (e.g. HEK293, COS, CHO, NIH3T3)
The method is carried out in the manner described for the serotonin receptor assay above, except where described below. Eleven dilutions (5× assay concentration) of the test and reference (see Table 20) compounds are prepared in the appropriate buffer by serial dilution, as previously described. Radioligand is diluted to five times the assay concentration (see Table 21) in the appropriate buffer.
The 250 μl reactions are incubated at room temperature and shielded from light (to prevent photolysis of light-sensitive ligands) for 1 hour (for α1 receptors, 40 min for α2 receptors, and 1.5 hours for β receptors), then harvested by rapid filtration onto Whatman GF/B glass fiber filters pre-soaked with 0.3% polyethyleneimine using a 96-well Brandel harverster. Four rapid 500-μl washes are performed with chilled distilled water (for α1 and β receptors) or 0.1% polyethyleneimine (for α2 receptors) to reduce non-specific binding. Filters are placed in 6 ml scintillation tubes and allowed to dry overnight and the samples are treated to obtain data as described above.

Sequence of dopamine D3 (P35462 whole entry): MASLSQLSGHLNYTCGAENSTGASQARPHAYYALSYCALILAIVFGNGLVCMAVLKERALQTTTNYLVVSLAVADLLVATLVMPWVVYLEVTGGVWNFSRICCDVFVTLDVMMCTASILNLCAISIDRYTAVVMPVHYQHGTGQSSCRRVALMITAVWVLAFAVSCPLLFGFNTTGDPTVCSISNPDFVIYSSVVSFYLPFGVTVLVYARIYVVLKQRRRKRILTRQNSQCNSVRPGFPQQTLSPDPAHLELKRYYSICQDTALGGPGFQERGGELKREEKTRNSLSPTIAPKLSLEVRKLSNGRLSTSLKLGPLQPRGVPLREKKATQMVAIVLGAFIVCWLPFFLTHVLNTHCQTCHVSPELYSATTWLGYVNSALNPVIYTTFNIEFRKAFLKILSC
Sequence of dopamine D5 (P21918 whole entry): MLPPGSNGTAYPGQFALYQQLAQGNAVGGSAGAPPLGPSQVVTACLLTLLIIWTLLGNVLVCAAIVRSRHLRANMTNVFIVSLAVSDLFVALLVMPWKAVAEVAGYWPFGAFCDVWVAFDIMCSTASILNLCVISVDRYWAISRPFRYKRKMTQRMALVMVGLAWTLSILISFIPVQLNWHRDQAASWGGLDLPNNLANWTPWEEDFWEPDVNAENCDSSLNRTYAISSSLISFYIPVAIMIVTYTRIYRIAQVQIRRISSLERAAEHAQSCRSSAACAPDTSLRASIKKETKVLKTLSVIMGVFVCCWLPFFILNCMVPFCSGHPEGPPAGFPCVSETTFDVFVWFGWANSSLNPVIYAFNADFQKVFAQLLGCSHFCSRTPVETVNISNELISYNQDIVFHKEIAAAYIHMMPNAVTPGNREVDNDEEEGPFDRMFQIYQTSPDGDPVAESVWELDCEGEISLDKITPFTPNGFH
Sequence of dopamine D1 (P21728 whole entry): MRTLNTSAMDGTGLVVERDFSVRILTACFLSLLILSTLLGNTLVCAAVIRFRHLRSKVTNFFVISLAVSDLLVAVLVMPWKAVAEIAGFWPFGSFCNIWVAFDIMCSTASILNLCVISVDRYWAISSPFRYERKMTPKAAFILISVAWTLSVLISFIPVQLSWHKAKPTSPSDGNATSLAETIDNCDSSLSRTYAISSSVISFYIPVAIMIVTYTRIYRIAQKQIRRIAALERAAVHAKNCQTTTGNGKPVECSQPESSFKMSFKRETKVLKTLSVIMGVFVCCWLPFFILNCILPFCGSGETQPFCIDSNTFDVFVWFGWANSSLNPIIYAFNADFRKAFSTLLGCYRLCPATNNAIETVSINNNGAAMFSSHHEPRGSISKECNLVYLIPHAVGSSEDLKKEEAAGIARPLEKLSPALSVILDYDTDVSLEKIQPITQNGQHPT
Sequence of 5-HT2B (P41595 whole entry, species assumed): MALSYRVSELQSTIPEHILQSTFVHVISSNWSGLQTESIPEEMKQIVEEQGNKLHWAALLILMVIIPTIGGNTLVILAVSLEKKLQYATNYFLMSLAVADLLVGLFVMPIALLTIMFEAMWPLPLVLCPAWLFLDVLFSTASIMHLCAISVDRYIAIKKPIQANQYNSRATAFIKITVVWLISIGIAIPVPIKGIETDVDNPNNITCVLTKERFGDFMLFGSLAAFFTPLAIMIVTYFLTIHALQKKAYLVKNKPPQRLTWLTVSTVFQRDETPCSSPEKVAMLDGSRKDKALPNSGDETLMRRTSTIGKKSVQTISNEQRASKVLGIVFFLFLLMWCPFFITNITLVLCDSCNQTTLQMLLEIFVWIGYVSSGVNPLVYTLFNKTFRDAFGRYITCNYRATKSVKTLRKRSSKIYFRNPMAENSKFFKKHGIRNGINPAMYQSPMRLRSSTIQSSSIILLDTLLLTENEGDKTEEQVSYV
Sequence of 5-HT7 (P34969 whole entry, species assumed): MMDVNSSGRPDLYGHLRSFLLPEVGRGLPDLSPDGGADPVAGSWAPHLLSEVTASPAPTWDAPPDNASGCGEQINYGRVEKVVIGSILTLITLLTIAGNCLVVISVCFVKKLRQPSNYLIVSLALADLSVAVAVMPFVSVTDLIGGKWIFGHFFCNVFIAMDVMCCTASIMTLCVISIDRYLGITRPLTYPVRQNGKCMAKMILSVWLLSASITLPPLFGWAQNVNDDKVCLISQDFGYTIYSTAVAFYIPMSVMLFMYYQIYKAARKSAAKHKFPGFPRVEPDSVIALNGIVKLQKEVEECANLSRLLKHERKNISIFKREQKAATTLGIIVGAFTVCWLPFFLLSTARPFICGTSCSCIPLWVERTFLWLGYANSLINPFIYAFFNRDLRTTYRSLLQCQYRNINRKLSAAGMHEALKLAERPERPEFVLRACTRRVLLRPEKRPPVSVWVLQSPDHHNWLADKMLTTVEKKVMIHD

Structure (SMILES)	Ki [1] [nM]	Ki [2] [nM]	D4 (% inh) [3] [% inh]	D2 (% inh) [4] [% inh]	D5 (% inh) [5] [% inh]	Alpha1D (% inh) [6] [% inh]	Ki [7] [nM]	Ki [8] [nM]	D3 (% inh) [9] [% inh]	Ki [10] [nM]	Alpha1A (% inh) [11] [% inh]	D1 (% inh) [12] [% inh]	Alpha1B (% inh) [13] [% inh]	Ki [14] [nM]
O=C1c2ccccc2CN1CCCCN1CCN(c2ccccc2)CC1 [2-(4-(4-Phenyl-1-piperazinyl)butyl)-1-isoindolinone]	319	134	–	–	–	–	–	–	–	–	–	–	–	–
COc1cc2c(cc1OC)C(=O)C(CC1CCN(Cc3ccccc3)CC1)C2 (stereo not drawn) [donepezil, reference compound]	–	–	89.2	18.6	–	–	–	–	–	–	–	–	–	–
CC1Cc2ccccc2N1C(=O)CN1CCN(c2ccccc2)CC1 (stereo not drawn) [STT-00185641]	–	–	–	2	18	31.1	2820	8430	51	1450	64.8	−1	−19.8	2010
